Source: publication PMC6001238, “Iterative Chemical Engineering of Vancomycin Leads to Novel Vancomycin Analogs With a High in Vitro Therapeutic Index” (Frontiers in Microbiology, 2018)
Converted amounts (≈) assume the structure as drawn.

What was measured:
[1] = test system: S. aureus VSSA (ATCC 6538); assay: MIC, broth microdilution, vancomycin-sensitive S. aureus (VSSA/MSSA, ATCC 6538); format: cell-based, Staphylococcus aureus; conditions: for MIC: Staphylococcus aureus VSSA, read-out: MIC; for MIC-fold improvement vs. vancomycin: VSSA, ratio of MIC of vancomycin and MIC of analogue
Outline: (§1)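 Susceptibility was scored by broth microdilution (CLSI). In one instance each vancomycin analog or control antibiotic was tested in the presence of vancomycin, 10 μM final, and ultrapure water plus non-inoculated broth were included as controls.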

MRSA KS1 = assay: MIC, broth microdilution, MRSA KS1; format: cell-based, Staphylococcus aureus; conditions: for MIC-fold improvement vs. vancomycin: MRSA KS1, ratio of MIC of vancomycin and MIC of analogue; for MIC: Staphylococcus aureus MRSA KS1, read-out: MIC
Outline: as §1

E. faecalis VRE 29 = assay: MIC, broth microdilution, vancomycin-resistant E. faecalis VRE 29 (VanA); format: cell-based, Enterococcus faecalis; conditions: for MIC: Enterococcus faecalis VRE 29 (vancomycin-resistant), read-out: MIC; for MIC-fold improvement vs. vancomycin: VRE 29, ratio of MIC of vancomycin and MIC of analogue
Outline: as §1

MRSA KS2 = assay: MIC, broth microdilution, MRSA KS2; format: cell-based, Staphylococcus aureus; conditions: for MIC-fold improvement vs. vancomycin: MRSA KS2, ratio of MIC of vancomycin and MIC of analogue; for MIC: Staphylococcus aureus MRSA KS2, read-out: MIC
Outline: as §1

E. faecalis VRE 37 = assay: MIC, broth microdilution, vancomycin-resistant E. faecalis VRE 37 (VanA); format: cell-based, Enterococcus faecalis; conditions: for MIC: Enterococcus faecalis VRE 37 (vancomycin-resistant), read-out: MIC
Outline: as §1

[2] = test system: human T-lymphocyte (CEM) cells; assay: Cytostatic activity, CEM cell proliferation; format: cell-based; conditions: mean ± SD of three experiments; highest concentration tested 250 µM; 3 days; read-out: Toxicity (IC50) CEM
Outline: (§2)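 Suspensions (300,000–500,000 cells/mL) combined with equal volumes of diluted compound; 37°C; L1210 2 d / CEM 3 d / HeLa 4 d; counted by Coulter counter; IC50 vs untreated wells.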

[3] = test system: Murine leukemia (L1210) cells; assay: Cytostatic activity, L1210 cell proliferation; format: cell-based; conditions: mean ± SD of three experiments; highest concentration tested 250 µM; 2 days; read-out: Toxicity (IC50) L1210
Outline: as §2

S. aureus VISA/HIP5827 = assay: MIC, broth microdilution, vancomycin-intermediate S. aureus VISA HIP5827; format: cell-based, Staphylococcus aureus; conditions: for MIC: Staphylococcus aureus VISA/HIP5827, read-out: MIC; for MIC-fold improvement vs. vancomycin: VISA/HIP5827, ratio of MIC of vancomycin and MIC of analogue
Outline: as §1

MRSA KS6 = assay: MIC, broth microdilution, MRSA KS6; format: cell-based, Staphylococcus aureus; conditions: for MIC-fold improvement vs. vancomycin: MRSA KS6, ratio of MIC of vancomycin and MIC of analogue; for MIC: Staphylococcus aureus MRSA KS6, read-out: MIC
Outline: as §1

[4] = test system: human cervix carcinoma (HeLa) cells; assay: Cytostatic activity, HeLa cell proliferation; format: cell-based; conditions: mean ± SD of three experiments; highest concentration tested 250 µM; 4 days; read-out: Toxicity (IC50) HeLa
Outline: as §2

E. faecalis VRE 6 = assay: MIC, broth microdilution, vancomycin-resistant E. faecalis VRE 6 (VanA); format: cell-based, Enterococcus faecalis; conditions: for MIC: Enterococcus faecalis VRE 6 (vancomycin-resistant), read-out: MIC; for MIC-fold improvement vs. vancomycin: VRE 6, ratio of MIC of vancomycin and MIC of analogue
Outline: as §1

S. aureus VRSA = assay: MIC, broth microdilution, vancomycin-resistant S. aureus (VRSA); format: cell-based, Staphylococcus aureus; conditions: for MIC: Staphylococcus aureus VRSA, read-out: MIC; for MIC-fold improvement vs. vancomycin: VRSA, ratio of MIC of vancomycin and MIC of analogue
Outline: as §1

E. faecalis VSE 1 = assay: MIC, broth microdilution, vancomycin-sensitive E. faecalis (VSE 1); format: cell-based, Enterococcus faecalis; conditions: for MIC: Enterococcus faecalis VSE 1 (vancomycin-sensitive), read-out: MIC; for MIC-fold improvement vs. vancomycin: VSE 1, ratio of MIC of vancomycin and MIC of analogue
Outline: as §1

[5] = test system: L1210, CEM and HeLa cell lines; assay: Cytostatic activity, average or summary over L1210, CEM and HeLa; format: cell-based; conditions: average of L1210, CEM and HeLa; read-out: Toxicity (IC50) Average
Outline: as §2

E. faecalis VRE 53 = assay: MIC, broth microdilution, vancomycin-resistant E. faecalis VRE 53 (VanA); format: cell-based, Enterococcus faecalis; conditions: for MIC: Enterococcus faecalis VRE 53 (vancomycin-resistant), read-out: MIC; for MIC-fold improvement vs. vancomycin: VRE 53, ratio of MIC of vancomycin and MIC of analogue
Outline: as §1

MRSA KS89 = assay: MIC, broth microdilution, MRSA KS89; format: cell-based, Staphylococcus aureus; conditions: for MIC-fold improvement vs. vancomycin: MRSA KS8, ratio of MIC of vancomycin and MIC of analogue; for MIC: Staphylococcus aureus MRSA KS8, read-out: MIC
Outline: as §1

SMILES | MIC [1] [µM] | MIC-fold improvement vs. vancomycin [1] | MIC-fold improvement vs. vancomycin (MRSA KS1) | MIC (MRSA KS1) [µM] | MIC (E. faecalis VRE 29) [µM] | MIC-fold improvement vs. vancomycin (E. faecalis VRE 29) | MIC-fold improvement vs. vancomycin (MRSA KS2) | MIC (MRSA KS2) [µM] | MIC (E. faecalis VRE 37) [µM] | IC50 [2] [µM] | IC50 [3] [µM] | MIC (S. aureus VISA/HIP5827) [µM] | MIC-fold improvement vs. vancomycin (S. aureus VISA/HIP5827) | MIC-fold improvement vs. vancomycin (MRSA KS6) | MIC (MRSA KS6) [µM] | IC50 [4] [µM] | MIC (E. faecalis VRE 6) [µM] | MIC-fold improvement vs. vancomycin (E. faecalis VRE 6) | MIC (S. aureus VRSA) [µM] | MIC-fold improvement vs. vancomycin (S. aureus VRSA) | other results
CNC(CC(C)C)C(=O)NC1C(=O)NC(CC(N)=O)C(=O)NC2C(=O)NC3C(=O)NC(C(=O)NC(C(=O)NCCCNC(=O)c4ccc(-c5ccccc5)cc4)c4cc(O)cc(O)c4-c4cc3ccc4O)C(O)c3ccc(c(Cl)c3)Oc3cc2cc(c3OC2OC(CO)C(O)C(O)C2OC2CC(C)(N)C(O)C(C)O2)Oc2ccc(cc2Cl)C1O (stereo not shown) [Vanc-33] | 0.20 (≈ 0.337 µg/mL) | 4 | 2 | 0.39 (≈ 0.657 µg/mL) | 6.25 (≈ 10.5 µg/mL) | 64 | 4 | 0.20 (≈ 0.337 µg/mL) | 12.5 (≈ 21.1 µg/mL) | 78 ± 16 | 57 ± 20 | 0.20 (≈ 0.337 µg/mL) | 32 | 2 | 0.39 (≈ 0.657 µg/mL) | 84 ± 8 | 1.56 (≈ 2.63 µg/mL) | 128 | 0.78 (≈ 1.31 µg/mL) | 128 | MIC (E. faecalis VSE 1): 0.20 µM (≈ 0.337 µg/mL); MIC-fold improvement vs. vancomycin (E. faecalis VSE 1): 8; IC50 [5]: 73 µM; MIC (E. faecalis VRE 53): 25 µM (≈ 42.1 µg/mL); MIC-fold improvement vs. vancomycin (E. faecalis VRE 53): 16; MIC-fold improvement vs. vancomycin (MRSA KS89): 2; MIC (MRSA KS89): 0.39 µM (≈ 0.657 µg/mL)
CNC(CC(C)C)C(=O)NC1C(=O)NC(CC(N)=O)C(=O)NC2C(=O)NC3C(=O)NC(C(=O)NC(C(=O)NCCCNC(=O)c4ccc(-c5ccc(-c6ccccc6)cc5)cc4)c4cc(O)cc(O)c4-c4cc3ccc4O)C(O)c3ccc(c(Cl)c3)Oc3cc2cc(c3OC2OC(CO)C(O)C(O)C2OC2CC(C)(N)C(O)C(C)O2)Oc2ccc(cc2Cl)C1O (stereo not shown) [Vanc-35] | 0.05 (≈ 0.0881 µg/mL) | 16 | 1 | 0.78 (≈ 1.37 µg/mL) | 1.56 (≈ 2.75 µg/mL) | 256 | 2 | 0.39 (≈ 0.687 µg/mL) | 1.56 (≈ 2.75 µg/mL) | 0.98 ± 0.06 | 4.1 ± 0.5 | 0.05 (≈ 0.0881 µg/mL) | 128 | 4 | 0.20 (≈ 0.352 µg/mL) | 17 ± 2 | 0.39 (≈ 0.687 µg/mL) | 513 | 1.56 (≈ 2.75 µg/mL) | 64 | MIC-fold improvement vs. vancomycin (E. faecalis VRE 37; VRE 37, ratio of MIC of vancomycin and MIC of analogue): 256; MIC (E. faecalis VSE 1): 0.20 µM (≈ 0.352 µg/mL); MIC-fold improvement vs. vancomycin (E. faecalis VSE 1): 8; IC50 [5]: 7 µM; MIC (E. faecalis VRE 53): 6.25 µM (≈ 11 µg/mL); MIC-fold improvement vs. vancomycin (E. faecalis VRE 53): 64; MIC-fold improvement vs. vancomycin (MRSA KS89): 4; MIC (MRSA KS89): 0.20 µM (≈ 0.352 µg/mL)
